Measured values: US5420010A, “Assay for evaluating inhibition of polymorphonuclear leukocyte elastase by N-substituted azetidinones” (Merck & Co., Inc., priority 1993, dated 1995)

System: HLE:α1 PI complexes
Experiment: Decrease in HLE:α1 PI complexes formed in A23187-stimulated human blood (ELISA)
Type: cell-based
Conditions: after treatment with A23187, 100 μM, 30 minutes
Protocol: The blood was then incubated for 30 minutes at 37° C. with 100 μM A23187 (CAL. BIOCHEM.) to stimulate the release of HLE from polymorphonuclear leukocytes. Platelet rich plasma was removed from each sample and prepared for the analysis of HLE:α1 PI complexes by ELISA, and Aα(1-21) by specific RIA.
(Compound B* differs from Compound B only by the substituent on the phenoxy.) A23187, 100 μM, was added and the blood was incubated for an additional 30 minutes. The amounts of reactivation product and α1 PI:elastase complex in the plasma were determined. The total concentration of α1 PI:Elastase complexes formed was 139 μM after treatment with A23187.

Question: How did the “total concentration of α1 PI:Elastase complexes formed” value turn out when `CNc1ccc2oc(C[C@H]3O[C@@]4(CC[C@H]3C)O[C@H]([C@H](C)C(=O)c3ccc[nH]3)[C@H](C)C[C@H]4C)nc2c1C(=O)O` [Compound A23187] was run?
Answer: 139 µM
